In paper PMC10780819, “Enhanced Cytotoxicity and Antimelanoma Activity of Novel Semisynthetic Derivatives of Betulinic Acid with Indole Conjugation” (Plants, 2023):
“Also recorded” adds a separate entry of the source.

Key:
[1] = tested on: murine melanoma B164A5 cells; experiment: Hoechst 33342 nuclear staining; format: cell-based; settings: 25, 50, 75 μM tested; exposure per Figure 7 legend
Procedure: The procedure was implemented in accordance with the manufacturer’s recommendations. […] A positive control was used to induce apoptosis, using a concentration of 5 µM staurosporine for a duration of 3 h at a temperature of 37 °C. Similarly, for necrosis induction, a concentration of 0.5% Triton X-100 was utilized, with an incubation period of 30 min at 37 °C.

[2] = tested on: A375 human melanoma cells; set-up: method as in PMID 27553358; settings: 72 h incubation; cited from earlier work
[3] = tested on: human melanoma cell line A375; set-up: method as in PMID 36986941; settings: cited from earlier work; for wound healing rate: 50 µM
[4] = in vitro; settings: human
Procedure: (§1) The effect of testing substances (BI and BA1-BA4) on the survival of human keratinocytes cell line HaCat was also assessed.
(§2) The MTT assay was used to determine the effect of 2,3-indolo-betulinic acid derivatives and betulinic acid on the viability of HaCaT human keratinocyte cell line and B164A5 murine melanoma cells. […] Briefly, 1 × 10^4 cells per well were seeded onto 96-well culture plates and incubated until 70–80% confluence was achieved. Subsequently, the cells were subjected to stimulation for a duration of 72 h using five distinct concentrations (1, 10, 25, 50, and 75 µM) of the test samples. Following a 72 h incubation period, a 10 μL amount of a 5 mg/mL MTT solution obtained from the MTT kit (Sigma-Aldrich, St. Louis, MO, USA) was introduced into each well and subjected to an additional 3 h incubation. The formazan crystals that had been yielded were dissolved by the addition of 100 μL per well of the lysis solution that was included in the MTT kit. B164A5 cells and HaCaT cells were used as a control, and they were only treated with culture medium for 72 h. The spectrophotometric analysis of absorbance was performed at a wavelength of 570 nm using a microplate reader (BioRad, Hercules, CA, USA, xMark Microplate Spectrophotometer).

[5] = tested on: B164A5 murine melanoma cells; experiment: MTT cell viability assay on B164A5; settings: for reduction of cellular viability: 1 µM, 72 h, MTT; for viability at 75 µM: read-out: cell viability (growth percentage), 75 µM, 72 h, MTT; for viability at 1 µM: read-out: cell viability, 1 µM, 72 h, MTT
Procedure: as §2

[6] = tested on: B164A5 cells; experiment: Scratch (wound healing) anti-migratory assay; format: cell-based, murine; settings: 50 µM, 24 h
Procedure: To evaluate the invasion capability of B164A5 cells after stimulation with the tested compounds (1, 10, 25, and 50 µM), a scratch-based experiment was conducted. In summary, a quantity of 2 × 10^5 cells/well were evenly distributed onto 12-well culture plates until a complete and cohesive layer of cells was achieved. Subsequently, a sterile pipette tip was used to create a void in the center of each well. The cells and cellular debris that were detached subsequent to the process were carefully rinsed using phosphate buffer saline (PBS). Additionally, the cells were subjected to stimulation with the tested compounds. Photographs of the scratched region were captured at two time points: 0 h and 24 h. The images were obtained using an inverted microscope (Olympus IX73, Olympus, Tokyo, Japan) with a DP74 camera (Olympus, Tokyo, Japan) at a magnification of 10×. The cellSense Dimension program was used for the purpose of analyzing cell growth.
The scratch closure rate was calculated using the formula [78]:Scratch closure rate = [(At0 − At)/[…]] × 100, where At0 represents the initial scratch area at time 0 h, and At represents the scratch area after 24 h.

[7] = tested on: murine melanoma cells B164A5; set-up: cell viability: dose or concentration left out as unconfirmed; settings: cited from earlier work
[8] = tested on: HaCaT cells; settings: concentrations over 10 μM; cited from earlier work
[9] = tested on: human melanoma A375 cells; settings: cited from earlier work; for cytotoxic effect (LDH): 25 µM
[10] = tested on: HaCaT human keratinocyte cell line; experiment: MTT cell viability assay on HaCaT; settings: for reduction in cell viability: increasing dosages (25, 50, and 75 μM), 72 h
Procedure: as §1, §2

[11] = tested on: murine melanoma cells (B164A5); experiment: Neutral Red (NR) cytotoxicity assay; settings: 75 µM, 72 h
Source text: In addition to undertaking the MTT proliferation assessment, the NR technique was used to measure the cytotoxicity rate of the substances being studied. The underlying premise of this methodology depends upon the measurement of live cells using the NR chromophore, which effectively stains the lysosome of living cells. […] Consequently, live cells have the capability to secrete the NR dye when subjected to acidic conditions. Moreover, the intensity of the dye may be directly associated with the quantity of living cells, thereby enabling the assessment of drug-induced cytotoxicity.
In summary, the experimental procedure included subjecting the cells to five different doses (1, 10, 25, 50, and 75 µM) of test samples for a duration of 72 h. Subsequently, a volume of 10 μL of a 0.33% NR solution was introduced into each well, followed by an incubation period of at least 3 h. Following the completion of the incubation time, the medium was extracted, and the cells were promptly rinsed with a 50 μL solution of NR assay fixative. Subsequently, a solubilization step was carried out using a 100 μL solution of NR assay solubilization solution per well.

[12] = tested on: B164A5 murine melanoma cells; experiment: Lactate dehydrogenase (LDH) release assay; settings: 75 µM, 72 h
Procedure: The LDH technique is used to evaluate the extracellular release of internal lactate dehydrogenase subsequent to the disruption of the cellular membrane.
The present investigation used the LDH test to assess the cytotoxicity and necrosis-related events that transpired after the exposure of B164A5 murine melanoma cells to the test samples for a duration of 72 h.
The experimental procedure was conducted in accordance with the instructions outlined in the pierce LDH cytotoxicity assay kit, which was supplied by the manufacturer (Thermo Fisher Scientific, Boston, MA, USA).

[13] = tested on: Lox IMVI melanoma cells; set-up: method as in doi:10.1134/S1068162018030081; settings: 100 µM, 48 h; cited from earlier work
[14] = tested on: SK-MEL-2 cells; set-up: method as in doi:10.1134/S1068162018030081; settings: 100 µM, 48 h; cited from earlier work
[15] = MTT cell viability assay on HaCaT; settings: human, HaCaT keratinocyte cells
Procedure: as §1, §2

| Compound | nuclear changes (apoptosis / necrosis) [1] | wound healing rate [3] [%] | viability at 72 h, 75 µM [4] [%] | reduction of cellular viability [5] [%] | IC50 ([5]; Mus musculus, B16-4A5, 72 h) [µM] | viability at 75 µM ([5]; Mus musculus, B16-4A5, 72 h) [%] | wound healing rate (scratch closure rate) [6] [%] | viability at 1 µM ([5]; Mus musculus, B16-4A5, 72 h) [%] | inhibitory activity relative to BA4 ([5]; ratio of IC50 values) | cytotoxic effect (LDH) [9] [%] | reduction in cell viability [10] | other results |
| --- | --- | --- | --- | --- | --- | --- | --- | --- | --- | --- | --- | --- |
| C=C(C)[C@@H]1CC[C@]2(C(=O)NCC(=O)NCC(=O)NCC(=O)O)CC[C@]3(C)[C@H](CC[C@@H]4[C@@]5(C)Cc6c([nH]c7ccccc67)C(C)(C)[C@@H]5CC[C@]43C)[C@@H]12 [BA1, N-(2,3-indolo-betulinoyl)diglycylglycine] | apoptosis features only at a concentration of 75 μM; also recorded: apoptotic characteristics only at a concentration of 75 μM | 35 | ~70 | 27 | 10.34 ± 0.06 | 5.7 |  |  |  |  |  | IC50 [2]: 5.7 µM |
| C=C(C)[C@@H]1CC[C@]2(C(=O)NCC(=O)O)CC[C@]3(C)[C@H](CC[C@@H]4[C@@]5(C)Cc6c([nH]c7ccccc67)C(C)(C)[C@@H]5CC[C@]43C)[C@@H]12 [BA3, N-(2,3-indolo-betulinoyl)glycine] | necrosis process being observed from concentration of 25 μM; also recorded: necrotic process being apparent at a dosage of 25 μM |  | ~70 |  | 8.11 ± 0.13 | -1.5 | 21.3 | 8.1 | approximately 2.20 fold |  |  |  |
| C=C(C)[C@@H]1CC[C@]2(C(=O)NCC(=O)NCC(=O)O)CC[C@]3(C)[C@H](CC[C@@H]4[C@@]5(C)Cc6c([nH]c7ccccc67)C(C)(C)[C@@H]5CC[C@]43C)[C@@H]12 [BA2, N-(2,3-indolo-betulinoyl)glycylglycine] | specific signs of apoptosis (chromatin condensation) at both concentrations of 50 and 75 μM; also recorded: distinct signs of apoptosis, such as chromatin condensation, at both concentrations of 50 and 75 μM | 30 | ~70 | 15 | 9.15 ± 0.05 |  | 10.0 | 15.9 | approximately 2.20 fold |  |  | viability at 50 µM ([5]; Mus musculus, B16-4A5, 72 h, read-out: cell viability, 50 µM, 72 h, MTT): 0.41% |
| C=C(C)[C@@H]1CC[C@]2(C(=O)O)CC[C@]3(C)[C@H](CC[C@@H]4[C@@]5(C)CC[C@H](O)C(C)(C)[C@@H]5CC[C@]43C)[C@@H]12 [BI, Betulinic acid] | necrosis only from a concentration of 50 μM; also recorded: necrosis was evident in cells exposed to BA4 and BI only at a concentration of 50 μM |  |  | 32 | 21.14 ± 0.08 | 9.6 | 34.9 | 31.3 |  | 21.2 | around 21% | scratch closure rate ([3]; 25 µM): 17.5%; reduction in cell viability ([7]; 25 µM, 48 h of exposure): 40%; cell viability ([7]; 72 h of exposure): 50%; decrease in cell viability [8]: 20%; cell viability diminished by ([10]; concentrations exceeding 10 µM): approximately 20%; reduction in cell viability ([5]; 25 µM, 72 h exposure): 71%; cytotoxicity rate (NR assay) [11]: 63.0%; LDH release (cytotoxic rate) [12]: 52.7% |
| C=C(C)C1CCC2(C(=O)O)CCC3(C)C(CCC4C5(C)Cc6c([nH]c7ccccc67)C(C)(C)C5CCC43C)C12 (stereo not shown) [BA4, 2,3-indolo-betulinic acid] | necrosis only from a concentration of 50 μM; also recorded: necrosis was evident in cells exposed to BA4 and BI only at a concentration of 50 μM |  |  |  | 17.62 ± 0.11 | 15 |  |  |  | 43.36 | around 21% | viability percentage [13]: 44%; viability rate [14]: 57%; cytotoxic rate (LDH) ([9]; 75 µM): 32.8%; viability at 72 h, 75 µM [15]: 80.3%; activity relative to parent triterpenoid BI ([5]; ratio of IC50 values): 1.2 times |
